Blank lines part the entries; values can stand above or below the molecule they belong to.
Tests used:
[1] = test system: BHK cells; experiment: Leptomycin B treatment, Nercc localization in transfected BHK cells; type: cell-based, hamster
Method: (§1) Cells grown on coverslips were rinsed with PBS, fixed in methanol at −20° C. for 15 min, rinsed twice with PBS and incubated for 30 min at room temperature with the appropriate dilution of primary antibody in PBS. To visualize endogenous Nercc, affinity purified anti-Nercc peptide antibodies (N1 and C1) were employed at 10 μg/ml. Microtubules were visualized with a α/β-tubulin specific antibody. Coverslips were washed with PBS, and incubated with labeled secondary antibodies from corresponding species in appropriate combination-fluorescein or rhodamine X-conjugated donkey anti-rabbit, Cy2 or rhodamine X-conjugated donkey anti-mouse (each at 1:450). Incubation was terminated with a rinse in PBS, and the coverslips were mounted on a microscope slide. For immunodetection blocking, Nercc1 C1- or N1-antibody was incubated for 30 min at 37° C. with a 15-fold molar excess of immunizing peptide. After centrifugation at 12,000× g for 10 min, the mixture was used for immunoblotting or immunocytochemistry, as indicated. To examine the effects of Leptomycin B treatment on Nercc localization, HeLa or BHK21 cells were grown to subconfluency on 25 mm round glass coverslips in DMEM supplemented with 10% fetal bovine serum and penicillin-streptomycin. BHK21 cells were transfected (Fugene, Roche Molecular Biochemicals) with the wild type FLAG Nercc; medium was replaced after 18 hours (h). […]

[2] = test system: HeLa cells; experiment: Leptomycin B treatment, endogenous Nercc localization in HeLa cells; type: cell-based, human
Method: as §1

[3] = test system: p70S6K; experiment: Activity of endogenous p70S6K immunoprecipitated from H4-II-E-C3 hepatoma cells; type: cell-based, rat; settings: for IC50: insulin-stimulated H4 cells, insulin plus increasing inhibitor concentrations for 30 minutes, read-out: IC50 for inhibition of p70S6K activity
Method: (§2) Endogenous Nek6 polypeptide was immunoprecipitated from lysates of rat H4-II-E-C3 hepatoma cells following prior treatment for varying times (min) with 100 nM insulin (FIG. 12B), or insulin plus increasing concentrations of either wortmannin (FIG. 12C) or rapamycin (FIG. 12D) for 30 minutes. Nek6 kinase activity was measured using GST p70S6K ΔCT104 (Thr252Ala) as substrate (see, text for details). The activity of endogenous p70S6K αI/II, immunoprecipitated from the same lysates, was measured using a synthetic peptide substrate. Kinase activities are expressed as either fold increase in baseline activity (as in FIG. 12B; open circles show Nek6 activity; filled squares show p70S6K activity) or as histograms depicting the percent activity remaining for Nek6 (filled bars) or p70S6K (open bars) (as in FIGS. 12C and 12D).
The regulation of endogenous Nek6 activity in vivo was examined. An affinity purified anti-Nek6 peptide antibody raised against a polypeptide comprising an amino terminal murine Nek6 peptide AGQPSHMPHGGSPN (SEQ ID NO:30) conjugated to KLH via a cysteine residue as described above, gave highly specific immunoblots and was capable of modest immunoprecipitation of the endogenous Nek6 polypeptide, although at very low efficiency. Thus far, useful antibodies reactive with endogenous Nek7 have not been obtained. Nek6 immunoreactivity was evident in several commonly used mammalian cell lines including COS7 cells (FIG. 12A). […] Moreover, Nek6 had been isolated as a candidate p70S6 Kinase-Thr412 kinase, and insulin regulation of endogenous p70S6 Kinase (also referred to as p70S6K) had previously been characterized in this cell line (see, Price et al., Proc. Natl. Acad. Sci. USA, 87: 7944-7948 (1990)). Insulin generated a rapid, fifteen-fold activation of endogenous p70S6Kinase in serum-deprived H4 cells; under these conditions, however, no change occurred in the basal activity of immunoprecipitated endogenous Nek6 (FIG. 12B). […] The specific activity of Nek6 in H4 cells is, however, sensitive to serum withdrawal and declines progressively by 80% over 48 hours (FIG. 12E). […]

[4] = test system: Nek6; experiment: Nek6 kinase assay in vitro with p70S6K ΔCT104 as substrate; type: biochemical, human
Method: Transiently expressed FLAG Nek6 was incubated for 1 hour at 4° C. alone or with increasing quantities of either purified prokaryotic recombinant GST (lanes 6-8) or prokaryotic recombinant GST Nercc1 (732-979) (lanes 2-5). Nek6 activity was assayed using p70S6K ΔCT104 as substrate. Upper panel: mean±S.E.M. percent of control Nek6 activity. Lower panels: ^32P autoradiography, Coomassie stain of the GST Nercc1 (732-979) or GST proteins, and western blot of the FLAG Nek6 wild type.
Immunoprecipitates (IP) of recombinant Nek6 (using anti-FLAG or anti-myc antibodies) or endogenous Nek6 were washed three times in the extraction buffer containing 0.5 M LiCl, and twice in kinase buffer (50 mM MOPS pH 7.4, 10 mM MgCl2, 2 mM EGTA, 20 mM β-glycerophosphate). Kinase assays were performed in 30 μl kinase buffer containing 1.5 μg GST-p70S6K ΔCT104 (Thr252Ala) or MBP (0.2 mg/ml) and initiated by addition of [γ-^32P] ATP (5 μM final concentration at 4000 cpm/pmol). Reactions were incubated for 10 minutes at 30° C. and terminated by the addition of 4×SDS sample buffer. Kinase mixtures were resolved by SDS-PAGE, transferred to PVDF membrane, and Nek6 phosphotransferase activity determined by excising Coomassie stained bands corresponding to the substrate and measuring radioactive content by Cerenkov scintillation counting.

[5] = test system: Nek6; experiment: Activity of endogenous Nek6 immunoprecipitated from H4-II-E-C3 hepatoma cells; type: cell-based, rat; settings: serum-deprived H4 cells; 100 nM insulin
Method: as §2
Immunoprecipitates (IP) of recombinant Nek6 (using anti-FLAG or anti-myc antibodies) or endogenous Nek6 were washed three times in the extraction buffer containing 0.5 M LiCl, and twice in kinase buffer (50 mM MOPS pH 7.4, 10 mM MgCl2, 2 mM EGTA, 20 mM β-glycerophosphate). […] Kinase mixtures were resolved by SDS-PAGE, transferred to PVDF membrane, and Nek6 phosphotransferase activity determined by excising Coomassie stained bands corresponding to the substrate and measuring radioactive content by Cerenkov scintillation counting. […]

Nek6, sequence (Q9HC98 whole entry): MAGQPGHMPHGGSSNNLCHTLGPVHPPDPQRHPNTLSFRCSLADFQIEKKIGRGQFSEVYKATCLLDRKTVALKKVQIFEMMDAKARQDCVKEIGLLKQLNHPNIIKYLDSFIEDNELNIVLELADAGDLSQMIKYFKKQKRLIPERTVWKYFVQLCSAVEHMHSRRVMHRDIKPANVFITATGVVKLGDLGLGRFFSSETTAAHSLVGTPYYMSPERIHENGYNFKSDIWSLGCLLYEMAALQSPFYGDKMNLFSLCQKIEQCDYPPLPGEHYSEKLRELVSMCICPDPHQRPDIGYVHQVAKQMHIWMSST

Molecule: CCC(=C/[C@H](C)C/C=C/C(C)=C/[C@@H](C)C(=O)[C@@H](C)[C@H](O)[C@@H](C)C/C(C)=C/C(=O)O)/C=C/[C@@H]1OC(=O)C=C[C@@H]1C [Leptomycin B]
- endogenous RanBP1 fluorescence in the nucleus ([1]; 20 nM, 30 minutes incubation): increased dramatically
- localization of wild type Nercc ([1]; 2, 20 and 200 nM, 30 minutes to 24 hours): remained cytoplasmic
- response of endogenous Nercc localization [2]: lack of response

- IC50 [3]: ~0.002 µM
Molecule: CO[C@H]1C[C@@H]2CC[C@@H](C)[C@@](O)(O2)C(=O)C(=O)N2CCCC[C@H]2C(=O)O[C@H]([C@H](C)C[C@@H]2CC[C@@H](O)[C@H](OC)C2)CC(=O)[C@H](C)/C=C(\C)[C@@H](O)[C@@H](OC)C(=O)[C@H](C)C[C@H](C)/C=C/C=C/C=C/1C [rapamycin]

Molecule: COC[C@H]1OC(=O)c2coc3c2[C@@]1(C)C1=C(C3=O)[C@@H]2CCC(=O)[C@@]2(C)C[C@H]1OC(C)=O [wortmannin]
- IC50 [3]: ~0.03 µM

- mode of inhibition of Nek6 catalytic activity [4]: noncompetitive
Molecule: GST Nercc1 (732-979): fusion protein of GST linked to Nercc amino acids 732-979 of SEQ ID NO:2
- effect on enzymatic activity of preactivated wild type Nek6 ([4]; concentrations far below those of p70S6K ΔCT104 substrate): substantial inhibition

Molecule: Insulin: insulin, used at 100 nM to stimulate H4 cells
- change in basal activity of immunoprecipitated endogenous Nek6 [5]: no change
- activation of endogenous p70S6Kinase ([3]; serum-deprived H4 cells, 100 nM insulin): fifteen-fold

Source: patent publication US20060052582A1, “Identification of inhibitors of mitosis” (priority 2002, published 2006)
